Assay results taken from patent US20060233711A1, “Method for treating conditions associated with fear memory” (priority 2005, published 2006).

Tests used:
[1] = tested on: EPSCs in LA neurons (thalamic input); assay: Whole-cell patch-clamp recording of EPSCs in lateral amygdala neurons in slices; type: cell-based, mice
Method: Transverse slices ([…]) of the amygdala were transferred to a room temperature submerged recovery chamber with oxygenated (95% O2 and 5% CO2) ACSF solution as described above. After a one hour recovery, slices were placed in a recording chamber on the stage of an Axioskop 2FS microscope (Zeiss) equipped with infrared DIC optics for visualized whole-cell patch clamp recordings. Excitatory postsynaptic currents were recorded from cells in the lateral amygdala with an Axon 200B amplifier (Axon Instruments, Calif., USA). Electrical stimulations (200 μsec duration) were delivered by a bipolar tungsten stimulating electrode placed in the internal capsule (thalamic inputs) (Tsvetkov et al., 2004). EPSCs were induced by repetitive stimulations at 0.02-0.05 Hz and neurons were voltage clamped at −70 mV. In all experiments, the stimulus intensity was adjusted to produce synaptic responses with an amplitude of 70-100 pA. […] Access resistance was 15-30 M ? and monitored throughout the experiment. […]

AMPA receptors = conditions: cited from earlier work
KARs = conditions: SYM2206 at 100 μM; cited from earlier work
GluR5 = conditions: treated animals; cited from earlier work

CCCNC(=O)N1N=C(c2ccc(N)cc2)c2cc3c(cc2C1C)OCO3 (racemic) [SYM2206, (±)-4-(4-aminophenyl)-1,2-dihydro-1-methyl-2-propylcarbamoyl-6,7-methylenedioxyphthalazine]
effect on EPSCs ([1]; bath application of AP5 (50 μM) plus SYM2206 (100 μM), n=17, LA neurons): reduced, but did not completely block
IC50 (AMPA receptors; AMPA receptors, read-out: half-maximal inhibitory concentration): 1000 to 2000 nM
inhibition of AMPA receptors (AMPA receptors; SYM2206 at 100 μM): maximal inhibition
inhibition of KARs (KARs): 20-30%

N#Cc1cc2[nH]c(=O)c(=O)[nH]c2cc1[N+](=O)[O-] [CNQX]
effect on residual (SYM2206-insensitive) current ([1]; CNQX 20 μM, after AP5 plus SYM2206, n=5): completely blocked

O=C(O)c1ccc(C[C@H]2CC[C@H]3CN[C@H](C(=O)O)C[C@H]3C2)cc1 [LY382884]
behavioral responses to formalin and Complete Freund's adjuvant (CFA) (GluR5): reduced
